Reference: patent publication US20240175029A1, “RNA INHIBITOR FOR INHIBITING HEPATITIS B VIRUS GENE EXPRESSION AND APPLICATION THEREOF” (priority 2021, published 2024)

Experiments:
[1] = system: HBV HBsAg; test: Comparison and combined use of Ky-2208 and tenofovir (TDF) in HBV transgenic (HBV-Tg) mice, HBsAg; format: in vivo; settings: Ky-2208 3 or 9 mpk sc single, TDF 15 mpk po daily, d7-d28
Method: Experimental procedures: 48 HBV-Tg male mice with a body weight of 25-35 g and a week age of 8-13 w, were raised in an animal room that meets the SPF standard, with a temperature of 16-26° C., a humidity of 40-70% and circulating light (12 hours in light and dark respectively), and were free to eat and drink water. The solvent for formulation of the compound was normal saline, and the concentration of the working solution was 0.75 mg/mL. […] The experiment consisted of 6 groups, including one control group ([…]) and 5 administration groups. The drug was administered once on the day of d0, and mice in each group were subcutaneously injected with 0.04 mL/10 g of the corresponding test solution on d0. Whole blood was collected through the orbital venous plexus of mice on d0 before administration and d7, d14, d21 and d28 after administration, and centrifuged at 3000×g for 5 minutes. Supernatant was sampled on d0, d7, d14, d21 and d28 to detect HBV HBsAg.

[2] = system: HBsAg; test: Ky-22 combined with entecavir or interferon in HepG2.2.15 cells, HBsAg; format: cell-based, HBV; settings: 72 hours, ETV 0.1-10 μM, IFN-α 10-1000 IU/mL, Ky-22 0.125 μg/mL
Method: (§1) The experiment was conducted in the widely used HepG2.2.15 cell line to evaluate the inhibitory effect of the RNA inhibitor of the present invention in combination with different concentrations of entecavir (ETV) or interferon (IFN-a) on HBV.
(§2) Experimental procedures: DMEM medium containing 10% fetal bovine serum was prepared. Media containing 10 nM RNA inhibitor Ky-22 was prepared from a culture medium. HepG2.2.15 cells were inoculated at a cell density of […] and cultured in the DMEM medium with 10% fetal bovine serum at 37° C. under 5% CO2 for 24 hours, added with the drug for intervention, and incubated for 72 hours. The supernatant was sampled to detect HBsAg, HBeAg and HBV DNA. The relative percentages of HBsAg, HBeAg, and HBV DNA in the sample intervention groups were calibrated by compared with the supernatant of HepG2.2.15 cells without intervention.

[3] = system: HBeAg; test: Ky-22 combined with entecavir or interferon in HepG2.2.15 cells, HBeAg; format: cell-based, HBV; settings: 72 hours, ETV 0.1-10 μM, IFN-α 10-1000 IU/mL, Ky-22 0.125 μg/mL
Method: as §1, §2

Row | Structure (SMILES) | reduction of HBsAg level [1] | inhibitory effect on HBsAg [2] | inhibitory effect on HBeAg [3]
1 | C[C@H](Cn1cnc2c(N)ncnc21)OCP(=O)(O)O [tenofovir (TDF), tenofovir] | does not have the efficacy of reducing HBsAg level |  | 
2 | C=C1[C@H](CO)[C@@H](O)C[C@@H]1n1cnc2c(=O)[nH]c(N)nc21 [entecavir] |  | no significant inhibitory effect | no significant inhibitory effect
3 | CC(C)OC(=O)OCOP(=O)(CO[C@H](C)Cn1cnc2c(N)ncnc21)OCOC(=O)OC(C)C.O=C(O)/C=C/C(=O)O [TDF, Tenofovir] | no inhibitory effect |  | 
